Measured values published in patent US9056804B2, “Urease inhibitor formulations” (Incitec Pivot Limited, priority 2011, dated 2015).

Tests used:
[1] = tested on: urease; assay: Soil-water suspension incubation, ammonium formed from urea (17 days); assay type: biochemical; details: 72% inhibition at 50 μg/200 ml versus NBPT at 400 μg/200 ml
Procedure: The ammonium produced was measured as per Example 9.

[2] = tested on: fish, algae and invertebrates; details: cited from earlier work

Row | Compound | activity relative to NBPT [1] | LC50 [2]
1 | NP(N)(=O)Nc1ccccc1[N+](=O)[O-] [Example 2-NPT, 2-nitrophenyl phosphoric triamide] | about eight times more active than NBPT | –
2 | O=S1(=O)CCCC1 [tetramethylene sulfone] | – | greater than 1000 mg/l
